Assay results: patent US11464802B2, “3-substituted piperidine compounds for Cbl-b inhibition, and use thereof” (Nurix Therapeutics, Inc., priority 2019, dated 2022)

What was measured:
[1] = molecular target: T1, Cbl-b (Homo sapiens (Human), UniProt Q13191); assay: Cbl-b displacement assay (Cbl-b inhibition assay), Biological Example 8; assay type: binding; conditions: Table 8-1
Outline: (§1)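 Biotinylated Avitag-Cbl-b (residues 36-427) at 0.5 nM ("High") or 0.125 nM ("Low") final was preincubated 1 h at room temperature with compound (1% DMSO) in 20 mM HEPES pH 7.5, 150 mM NaCl, 0.01% Triton X-100, 0.01% BSA, 0.5 mM TCEP. Then 150 nM BODIPY FL inhibitor probe (~EC40) plus 2 nM streptavidin-terbium, 1 h; TR-FRET 520/620 read, IC50 derived.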

[2] = test system: TC-1 cell tumor; assay: Cbl-b inhibitor in combination with HPV16 E7 cancer vaccine in mice bearing syngeneic TC-1 tumor, Biological Example 11; assay type: in vivo, C57BL/6 mice; conditions: HPV16 E7 vaccine SC + Compound No. 53 180 mg/kg PO BID; TILs on day 10; percent increase relative to vaccine without Cbl-b inhibitor
Description: In brief, the combination therapy was tested in C57BL/6 mice bearing a syngeneic TC-1 cell tumor. TC-1 cells were derived from primary murine lung cells, which had been transfected with human papillomavirus strain 16 (HPV16) early proteins 6 and 7 (E6 and E7) and an activated human c-Ha-ras oncogene (Lin et al., Cancer Research, 56: 21-26, 1996). Either 2.5×10^4 (first study) or 5.0×10^4 (second study) TC-1 cells (obtained from Johns Hopkins University) were injected subcutaneously into the mid flank of each mouse. Tumors were allowed to grow to 50-100 mm^3 at which time the animals were randomized and treatment was begun (day 0).
The HPV16 E7 cancer vaccine (Shrimali et al., Cancer Immunol Res, 5: 755-766, 2017) included 100 μg of a synthetic peptide with the amino acid sequence of a CTL epitope of residues 49-57 of E7 ([…] set forth as SEQ ID NO:2), mixed with 20 μg of a synthetic peptide with the amino acid sequence of a Th epitope known as PADRE (aK-Cha-[…]a set for as SEQ ID NO:3, where “a” is D alanine and “Cha” is L-cyclohexylalanine) and 20 μg of a Quil-A® adjuvant marketed by Brenntag Biosector A/S, which contains purified quillaja saponins. The HPV16 E7 vaccine or Dulbecco's phosphate-buffered saline (DPBS) was administered subcutaneously (SC) on days 2 and 9 (=day 16 and day 23 post TC-1 injection). The Cbl-b inhibitor was dissolved in a suitable formulation and administered at a suitable dose level and frequency as informed by prior pharmacokinetic and tolerability studies. In initial studies, the Cbl-b inhibitor (Compound No. 53) in a suitable vehicle, or the vehicle, was administered orally (PO) at a dose of 180 mg/kg twice per day (BID) beginning on day 0 (=day 14 post TC-1 injection). In further studies, a Cbl-b inhibitor formulation was administered orally (PO) or parenterally (e.g., IV, IP, SC, or intratumorally at one to three injection sites per tumor). In addition to the test group of mice who received the combination therapy (the Cbl-b inhibitor formulation plus the HPV16 E7 vaccine), the study included control groups of mice who received: the vehicle formulation plus DPBS, the Cbl-b inhibitor formulation plus DPBS, or the vehicle formulation plus the HPV16 E7 vaccine.
Tumor size was recorded twice a week starting on day 0 (day 14 post TC-1 injection) and continued through duration of dosing until humane endpoints were reached between day 33 and day 42 (=between day 47 and day 56 post TC-1 injection). The level of response was evaluated by comparing tumor growth in the test mice versus the control mice (10 mice per group). In addition, the level of immune activation was assessed by collecting tumors for analysis of tumor infiltrating lymphocytes (TILs) on day 10 (=day 24 post TC-1 injection) in test and control mice (6 mice per group). TILs were processed for flow cytometric analysis using standard methods to determine antigen specificity, expression of cell type-specific markers, and expression of activation markers such as granzyme B, CD25, CD69, PD-1, and LAG3. In further experiments, PBMCs and/or splenocytes were also collected and processed. Augmentation of the anti-tumor immune response by the combination therapy was assessed by comparing the relative percentage of total or E7-specific (tumor antigen-specific) CD8+ T cells, and the relative levels of expression of activation markers on immune cells in mice of the test and study groups.

[3] = test system: primary human total T-cells; assay: Primary human total T-cell activation: CD25 surface staining, Biological Example 9; assay type: cell-based; conditions: 48 hours, fold change over baseline; for fold induction at 0.3 µM: inhibitor 0.3 μM; for fold induction at 0.3 µM / fold induction at 3 µM: Table 9-1; for fold induction at 1 µM: inhibitor 1 μM; for fold induction at 3 µM: inhibitor 3 μM
[4] = test system: primary human total T-cells; assay: Primary human total T-cell activation: IL-2 secretion, Biological Example 9; assay type: cell-based; conditions: 48 hours, fold change over baseline; for fold induction at 0.3 µM: inhibitor 0.3 μM; for fold induction at 0.3 µM / fold induction at 3 µM: Table 9-1; for fold induction at 1 µM: inhibitor 1 μM; for fold induction at 3 µM: inhibitor 3 μM
[5] = test system: primary human total T-cells; assay: Primary human total T-cell activation: IL-2 secretion, Biological Example 13; assay type: cell-based; conditions: 48 hours, fold change over baseline; for fold induction at 0.3 µM: inhibitor 0.3 μM; for fold induction at 0.3 µM / fold induction at 3 µM: Table 13-1; for fold induction at 1 µM: inhibitor 1 μM; for fold induction at 3 µM: inhibitor 3 μM
[6] = molecular target: T1, Cbl-b; assay: Cbl-b displacement assay (Cbl-b inhibition assay), Biological Example 12; assay type: binding; conditions: Table 12-1
Outline: as §1

[7] = test system: primary human total T-cells; assay: Primary human total T-cell activation: CD25 surface staining, Biological Example 13; assay type: cell-based; conditions: 48 hours, fold change over baseline; for fold induction at 0.3 µM: inhibitor 0.3 μM; for fold induction at 0.3 µM / fold induction at 3 µM: Table 13-1; for fold induction at 1 µM: inhibitor 1 μM; for fold induction at 3 µM: inhibitor 3 μM
[8] = test system: primary human total T-cells; assay: Primary human total T-cell activation: CD25 surface staining, Biological Example 2; assay type: cell-based; conditions: 48 hours, fold change over baseline; for fold induction at 1 µM: inhibitor 1 μM
[9] = molecular target: T1, Cbl-b; assay: Cbl-b displacement assay (Cbl-b inhibition assay), TR-FRET probe displacement, Biological Example 1; assay type: binding
Outline: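 N-terminally Avitagged, biotinylated truncated Cbl-b (0.5 nM "High" or 0.125 nM "Low", final) pre-incubated 1 h at room temperature with compound (1% DMSO) in HEPES pH 7.5 buffer. Then 150 nM BODIPY FL probe (~EC40) plus 2 nM streptavidin-terbium for 1 h; TR-FRET read at 520/620 nm.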

[10] = test system: primary human total T-cells; assay: Primary human total T-cell activation: IL-2 secretion, Biological Example 2; assay type: cell-based; conditions: 48 hours, fold change over baseline; for fold induction at 1 µM: inhibitor 1 μM
[11] = 0.125 nM Cbl-b final concentration (Low), read-out: Cbl-b IC50 (Low)
[12] = anti-CD3/anti-CD28 co-stimulation
[13] = anti-CD3/anti-CD28 co-stimulation, Table 9-1, read-out: CD25 staining CD3/CD28 1 μM
[14] = anti-CD3 alone, Table 9-1, read-out: CD25 staining CD3 1 μM
[15] = anti-CD3/anti-CD28 co-stimulation, Table 9-1, read-out: IL-2 secretion CD3/CD28 1 μM
[16] = anti-CD3 alone, Table 9-1, read-out: IL-2 secretion CD3 1 μM
[17] = anti-CD3/anti-CD28 co-stimulation, Table 13-1, read-out: IL-2 secretion CD3/CD28 1 μM
[18] = anti-CD3 alone, Table 13-1, read-out: IL-2 secretion CD3 1 μM
[19] = anti-CD3/anti-CD28 co-stimulation, Table 13-1, read-out: CD25 staining CD3/CD28 1 μM
[20] = anti-CD3 alone, Table 13-1, read-out: CD25 staining CD3 1 μM
[21] = anti-CD3/anti-CD28 co-stimulation, inhibitor 0.3 μM
[22] = 0.5 nM Cbl-b final concentration (High), read-out: Cbl-b IC50 (High)

T1 sequence (Q13191 36-427): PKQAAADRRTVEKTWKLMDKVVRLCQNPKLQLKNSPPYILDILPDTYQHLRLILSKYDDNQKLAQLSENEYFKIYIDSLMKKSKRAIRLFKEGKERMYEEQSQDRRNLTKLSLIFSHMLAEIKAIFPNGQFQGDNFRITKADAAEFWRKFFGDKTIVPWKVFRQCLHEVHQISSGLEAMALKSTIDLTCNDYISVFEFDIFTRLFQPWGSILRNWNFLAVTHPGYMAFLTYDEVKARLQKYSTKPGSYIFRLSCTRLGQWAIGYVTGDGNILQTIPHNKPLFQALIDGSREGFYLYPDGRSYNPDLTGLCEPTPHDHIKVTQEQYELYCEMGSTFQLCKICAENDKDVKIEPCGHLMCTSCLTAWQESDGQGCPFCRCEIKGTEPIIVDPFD

Q: Which results are given for `Cc1cc(C(=O)Nc2cccc(C3(Cc4nncn4C)COC3)c2)nc(C2CC2)n1` [Compound 53]?
A: IC50 [1, 11]: > 5 nM; Mean increase in CD8+ T cells in TILs: % E7 positive T cells [2]: 33.7%; Mean increase in CD8+ T cells in TILs: % Granzyme positive (E7+ T cells) [2]: 7.86%; Mean increase in CD8+ T cells in TILs: % Granzyme positive (E7− T cells) [2]: 4.12%; Mean increase in CD8+ T cells in TILs: % LAG3 positive (E7+ T cells) [2]: 13.49%; Mean increase in CD8+ T cells in TILs: % LAG3 positive (E7− cells) [2]: 0.96%; Mean increase in CD8+ T cells in TILs: % PD1 positive (E7+ T cells) [2]: 14.97%; Mean increase in CD8+ T cells in TILs: % PD1 positive (E7− T cells) [2]: 20.23%; fold induction at 0.3 µM [3, 12]: > 1.39; fold induction at 1 µM [3, 13]: > 1.39; fold induction at 1 µM [3, 14]: > 1.14; fold induction at 3 µM ([3]; anti-CD3 alone): > 1.14; fold induction at 0.3 µM [4, 12]: < 10; fold induction at 1 µM [4, 15]: 10 to 15; fold induction at 1 µM [4, 16]: 0.34 to 0.66; fold induction at 3 µM ([4]; anti-CD3 alone): 0.34 to 0.66; fold induction at 0.3 µM [5, 12]: < 10; fold induction at 1 µM [5, 17]: 11 to 15; fold induction at 1 µM [5, 18]: 0.34 to 0.66; fold induction at 3 µM ([5]; anti-CD3 alone): 0.34 to 0.66; IC50 [6, 11]: > 5 nM; fold induction at 0.3 µM [7, 12]: > 1.39; fold induction at 1 µM [7, 19]: > 1.39; fold induction at 1 µM [7, 20]: > 1.14; fold induction at 3 µM ([7]; anti-CD3 alone): > 1.14

Q: For `C[C@H]1CCCN(Cc2cc3c(c(C(F)(F)F)c2)CN(c2cccc(C4(Cc5nncn5C)COC4)c2)C3=O)C1` [Compound 1, (S)-2-(3-(3-((4-methyl-4H-1,2,4-triazol-3-yl)methyl)oxetan-3-yl)phenyl)-6-((3-methylpiperidin-1-yl)methyl)-4-(trifluoromethyl)isoindolin-1-one], which fold induction at 0.3 µM [8, 21] is on record?
A: < 1.24

Q: And the fold induction at 1 µM ([8]; anti-CD3/anti-CD28 co-stimulation, read-out: CD25 staining CD3/CD28 1 μM)?
A: < 1.24

Q: What about the fold induction at 1 µM ([8]; anti-CD3 alone, read-out: CD25 staining CD3 1 μM) of the same compound?
A: < 1.04

Q: And the fold induction at 3 µM ([8]; anti-CD3 alone, inhibitor 3 μM)?
A: < 1.04

Q: And the IC50 [1, 22]?
A: < 1 nM

Q: What about the fold induction at 0.3 µM [3, 12] of the same compound?
A: > 1.39

Q: What about the fold induction at 1 µM [3, 13] of the same compound?
A: > 1.39

Q: And the fold induction at 1 µM [3, 14]?
A: > 1.14

Q: And the fold induction at 3 µM ([3]; anti-CD3 alone)?
A: > 1.14

Q: What about the IC50 ([9]; 0.5 nM Cbl-b final concentration (High), read-out: Cbl-b activity IC50 (High)) of the same compound?
A: < 1 nM

Q: What about the IC50 ([9]; Cbl-b concentration (High or Low) not given, read-out: IC50 values in the Cbl-b inhibition assay of Biological Example 1) of the same compound?
A: < 1 nM

Q: And the fold induction at 0.3 µM [10, 21]?
A: > 15

Q: What about the fold induction at 1 µM ([10]; anti-CD3/anti-CD28 co-stimulation, read-out: IL-2 secretion CD3/CD28 1 μM) of the same compound?
A: > 15

Q: What about the fold induction at 1 µM ([10]; anti-CD3 alone, read-out: IL-2 secretion CD3 1 μM) of the same compound?
A: > 0.66

Q: What about the fold induction at 3 µM ([10]; anti-CD3 alone, inhibitor 3 μM) of the same compound?
A: > 0.66

Q: And the fold induction at 0.3 µM [4, 12]?
A: > 15

Q: What about the fold induction at 1 µM [4, 15] of the same compound?
A: > 15

Q: And the fold induction at 1 µM [4, 16]?
A: > 0.66

Q: What about the fold induction at 3 µM ([4]; anti-CD3 alone) of the same compound?
A: > 0.66

Q: And the fold induction at 0.3 µM [5, 12]?
A: > 15

Q: What about the fold induction at 1 µM [5, 17] of the same compound?
A: > 15

Q: What about the fold induction at 1 µM [5, 18] of the same compound?
A: > 0.66

Q: And the fold induction at 3 µM ([5]; anti-CD3 alone)?
A: > 0.66

Q: And the IC50 [6, 22]?
A: < 1 nM

Q: And the fold induction at 0.3 µM [7, 12]?
A: > 1.39

Q: And the fold induction at 1 µM [7, 19]?
A: > 1.39

Q: And the fold induction at 1 µM [7, 20]?
A: > 1.14

Q: And the fold induction at 3 µM ([7]; anti-CD3 alone)?
A: > 1.14
